Patent publication US20260070902A1, “SULFONYL DERIVATIVES AS CCR6 INHIBITORS” (Hoffmann-La Roche Inc., priority 2022, published 2026)

Columns and labels:
human CCR6 [1] = target: T1, human CCR6 (Homo sapiens, UniProt P51684); assay: Human CCR6-CRE reporter assay; assay type: cell-based; design: The second construct contained the open reading frame of human CCR6 in the pUNO1 backbone; host or cells: 293FT cells; settings: relative -Log IC50; 293FT cells transfected with human CCR6 and CRE-luciferase reporter; 6 μM Forskolin, 6 nM CCL20; 5 h
T1 sequence (P51684 1-374): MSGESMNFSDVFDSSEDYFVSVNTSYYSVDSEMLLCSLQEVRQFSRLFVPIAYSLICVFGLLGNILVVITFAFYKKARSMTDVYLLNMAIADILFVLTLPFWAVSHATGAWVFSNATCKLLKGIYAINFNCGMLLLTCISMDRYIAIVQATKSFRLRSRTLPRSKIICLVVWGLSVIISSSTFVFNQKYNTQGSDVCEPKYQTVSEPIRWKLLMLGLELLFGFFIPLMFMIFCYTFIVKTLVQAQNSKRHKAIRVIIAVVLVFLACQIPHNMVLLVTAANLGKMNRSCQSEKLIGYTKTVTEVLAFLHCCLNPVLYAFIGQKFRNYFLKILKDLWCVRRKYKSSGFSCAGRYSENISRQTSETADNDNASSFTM
Summary of the method: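 293FT cells transiently co-transfected with human CCR6 and a CRE-luc2P reporter, used 48 h later. Compounds incubated with cells in medium containing 6 μM Forskolin and 6 nM CCL20 (assay-medium levels), 0.1% DMSO final, 5 h at 37° C; luminescence read, relative −Log IC50 from four-parameter fit.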

human CCR6 [2] = target: T1, human CCR6; assay: CHO-K1 CCR6 chemotaxis assay towards CCL20; assay type: cell-based; settings: relative -Log IC50; CHO-K1 cells overexpressing human CCR6; migration towards 100 ng/ml CCL20; 4 h
Description: CHO-K1 CCR6 Chemotaxis Assay Towards CCL20
Cells overexpressing human CCR6 were used in the chemotaxis assay (DiscoverX, cAMP Hunter™ CHO-K1 CCR6 Gi Cell Line). Growth medium of these cells consisted of DMEM/F12, non-essential Amino acids (1×NEAA, Gibco 11140050), 10% FBS and 1× pen/strep (Gibco 15140). For the chemotaxis assay, Corning Transwell plates were used with a pore size of 8 m (Corning 351164). Cells were harvested using trypsin and diluted to 4*10^6 cells/ml in chemotaxis medium (DMEM, 0.25% BSA, pen/strep). Compounds were four-fold serially diluted in DMSO. Further dilutions were made in chemotaxis medium. Cells were incubated with test compounds for 30 min at 37° C. prior to initiation of the assay (2*10^6 cells/ml). Final DMSO concentration in the assay was 0.2%. Wells of the Transwell plates were filled with 200 μl chemotaxis medium containing 100 ng/ml CCL20 (R&D systems 360-MP). 50 μl of the cell/compound suspension was added to the inserts of the Transwell plates (100,000 cells/insert). The Transwell plates were placed in an incubator at 37° C., 5% CO2 for 4 h. After 4 h, the number of migrated cells was quantified using CellTiter Glo (Promega). Percentage inhibition values were calculated based on the low and high signal obtained with 0.2% DMSO in chemotaxis medium without and with CCL20, respectively. The relative −Log IC50 was determined with GraphPad Prism 9 using a four-parameter dose-response model.

IC50 (human CCR6 [1]) [nM] | IC50 (human CCR6 [2]) [nM] | SMILES
39.8 | 12.6 | CC(C)c1cnc2ccc(-c3ccc(S(=O)(=O)[C@H]4CC[C@H](Nc5ccc(S(F)(F)(F)(F)F)cc5)CC4)cc3)cn12 [Example 63, 4-(pentafluoro-λ^6-sulfanyl)-N-[trans-4-{4-[3-(propan-2-yl)imidazo[1,2-a]pyridin-6-yl]benzenesulfonyl}cyclohexyl]aniline]
63.1 | 39.8 | O=c1[nH]nc2ccc(-c3ccc(S(=O)(=O)[C@H]4CC[C@H](Nc5ccc(S(F)(F)(F)(F)F)cc5)CC4)cc3)cn12 [Example 66, 6-(4-{[trans-4-{[4-(pentafluoro-λ^6-sulfanyl)phenyl]Amino}cyclohexyl]sulfonyl}phenyl)-2H,3H-[1,2,4]triazolo[4,3-a]pyridin-3-one]
794 | 794 | Cc1cnc2ccc(-c3ccc(S(=O)(=O)N4CCC(Nc5ccc(S(F)(F)(F)(F)F)cc5)CC4)cn3)cn12 [Example 69, 1-[(6-{3-methylimidazo[1,2-a]pyridin-6-yl}pyridin-3-yl)sulfonyl]-N-[4-(pentafluoro-λ^6-sulfanyl)phenyl]piperidin-4-amine]
501 | 631 | N#Cc1cnc2ccc(-c3ccc(S(=O)(=O)N4CCC(Nc5ccc(S(F)(F)(F)(F)F)cc5)CC4)c(F)c3)cn12 [Example 73, 6-{3-fluoro-4-[(4-{[4-(pentafluoro-λ^6-sulfanyl)phenyl]Amino}piperidin-1-yl)sulfonyl]phenyl}imidazo[1,2-a]pyridine-3-carbonitrile]
501 | 794 | O=S(=O)(c1ccc(-c2ccc3nccn3c2)cc1F)N1CCC(Nc2ccc(S(F)(F)(F)(F)F)cc2)CC1 [Example 74, 1-(2-fluoro-4-{imidazo[1,2-a]pyridin-6-yl}benzenesulfonyl)-N-[4-(pentafluoro-λ^6-sulfanyl)phenyl]piperidin-4-amine]
794 | 501 | N#Cc1cnc2ccc(-c3ccc(S(=O)(=O)N4CCC(Nc5ccc(S(F)(F)(F)(F)F)cc5)CC4)cn3)cn12 [Example 76, 6-{5-[(4-{[4-(pentafluoro-λ^6-sulfanyl)phenyl]Amino}piperidin-1-yl)sulfonyl]pyridin-2-yl}imidazo[1,2-a]pyridine-3-carbonitrile]
50.1 | 126 | CC(C)c1nnc2ccc(-c3ccc(S(=O)(=O)N4CCC(Nc5cccc(S(F)(F)(F)(F)F)c5)CC4)cc3)cn12 [Example 84, N-[3-(pentafluoro-λ^6-sulfanyl)phenyl]-1-{4-[3-(propan-2-yl)-[1,2,4]triazolo[4,3-a]pyridin-6-yl]benzenesulfonyl}piperidin-4-amine]
200 | 1580 | CN(C)C(=O)c1ccc(-c2ccc(S(=N)(=O)[C@H]3CC[C@H](Nc4ccc(S(F)(F)(F)(F)F)cc4)CC3)cc2)cc1 (stereo partly drawn) [Example 92, N,N-dimethyl-4′-{[trans-4-{[4-(pentafluoro-λ^6-sulfanyl)phenyl]Amino}cyclohexyl]sulfonimidoyl}-[1,1′-biphenyl]-4-carboxamide]
251 | 501 | CNC(=O)c1ccc(-c2ccc(S(=N)(=O)[C@H]3CC[C@H](Nc4ccc(S(F)(F)(F)(F)F)cc4)CC3)cc2)cc1 (stereo partly drawn) [Example 95, N-methyl-4′-{[trans-4-{[4-(pentafluoro-λ^6-sulfanyl)phenyl]Amino}cyclohexyl]sulfonimidoyl}-[1,1′-biphenyl]-4-carboxamide]
158 | 501 | N=S(=O)(c1ccc(-c2ccc(C(N)=O)cc2)cc1)[C@H]1CC[C@H](Nc2ccc(S(F)(F)(F)(F)F)cc2)CC1 (stereo partly drawn) [Example 96, 4′-{[trans-4-{[4-(pentafluoro-λ^6-sulfanyl)phenyl]Amino}cyclohexyl]sulfonimidoyl}-[1,1′-biphenyl]-4-carboxamide]
200 | 251 | CNC(=O)c1cccc(-c2ccc(S(=N)(=O)[C@H]3CC[C@H](Nc4ccc(S(F)(F)(F)(F)F)cc4)CC3)cc2)c1 (stereo partly drawn) [Example 98, N-methyl-4′-{[trans-4-{[4-(pentafluoro-λ^6-sulfanyl)phenyl]Amino}cyclohexyl]sulfonimidoyl}-[1,1′-biphenyl]-3-carboxamide]
200 | 501 | N=S(=O)(c1ccc(-c2cccc(C(N)=O)c2)cc1)[C@H]1CC[C@H](Nc2ccc(S(F)(F)(F)(F)F)cc2)CC1 (stereo partly drawn) [Example 99, 4′-{[trans-4-{[4-(pentafluoro-λ^6-sulfanyl)phenyl]Amino}cyclohexyl]sulfonimidoyl}-[1,1′-biphenyl]-3-carboxamide]
316 | 794 | CNC(=O)c1ccc(-c2ccc(S(=N)(=O)[C@H]3CC[C@H](Nc4ccc(S(F)(F)(F)(F)F)cc4)CC3)cc2)cn1 (stereo partly drawn) [Example 101, N-methyl-5-(4-{[trans-4-{[4-(pentafluoro-λ^6-sulfanyl)phenyl]Amino}cyclohexyl]sulfonimidoyl}phenyl)pyridine-2-carboxamide]
398 | 631 | Cc1nnc2ccc(-c3ccc(S(=N)(=O)[C@H]4CC[C@H](Nc5ccc(S(F)(F)(F)(F)F)cc5)CC4)cc3)cn12 (stereo partly drawn) [Example 105, (4-{3-methyl-[1,2,4]triazolo[4,3-a]pyridin-6-yl}phenyl)[trans-4-{[4-(pentafluoro-λ^6-sulfanyl)phenyl]Amino}cyclohexyl](imino)-λ^6-sulfanone]
251 | 158 | CNC(=O)c1ccc(-c2ccc(S(=N)(=O)N3CCC(Nc4ccc(S(F)(F)(F)(F)F)cc4)CC3)cc2)cn1 (centres unmarked) [Example 121, N-methyl-5-{4-[(4-{[4-(pentafluoro-λ^6-sulfanyl)phenyl]Amino}piperidin-1-yl)sulfonimidoyl]phenyl}pyridine-2-carboxamide]
251 | 200 | N=S(=O)(c1ccc(-c2ccc3c(c2)CC(=O)N3)cc1)N1CCC(Nc2ccc(S(F)(F)(F)(F)F)cc2)CC1 (centres unmarked) [Example 123, 5-{4-[(4-{[4-(pentafluoro-λ^6-sulfanyl)phenyl]Amino}piperidin-1-yl)sulfonimidoyl]phenyl}-2,3-dihydro-1H-indol-2-one]
200 | 126 | N=S(=O)(c1ccc(-c2ccc3nccn3c2)cc1)N1CCC(Nc2ccc(S(F)(F)(F)(F)F)cc2)CC1 (centres unmarked) [Example 124, (4-{imidazo[1,2-a]pyridin-6-yl}phenyl)(4-{[4-(pentafluoro-λ^6-sulfanyl)phenyl]Amino}piperidin-1-yl)(imino)-λ^6-sulfanone]
63.1 | 20 | CNC(=O)c1cc(-c2ccc(S(=O)(=O)N3CCC(Nc4ccc(S(F)(F)(F)(F)F)cc4)CC3)cc2)ccc1F [Example 138, 4-fluoro-N-methyl-4′-[(4-{[4-(pentafluoro-λ^6-sulfanyl)phenyl]amino}piperidin-1-yl)sulfonyl]-[1,1′-biphenyl]-3-carboxamide]
63.1 | 10 | CNC(=O)c1ccc(-c2ccc(S(=O)(=O)N3CCC(Nc4ccc(S(F)(F)(F)(F)F)cc4)CC3)cc2)cc1F [Example 139, 3-fluoro-N-methyl-4′-[(4-{[4-(pentafluoro-λ^6-sulfanyl)phenyl]amino}piperidin-1-yl)sulfonyl]-[1,1′-biphenyl]-4-carboxamide]
